According to paper PMC11784839, “Monoaminergic neurotransmitters are bimodal effectors of tau aggregation” (Science Advances, 2025):

Biological target: tau (Homo sapiens, UniProt P10636)
Experiment: MCE Phenols Library screening, tau biosensor cell seeding assay (AvZ)
Format: cell-based
Details: for Z repl 1 / Z Repl 2: Z score; for Z repl 1 / raw data 1: replicate 1; for Z Repl 2 / raw data 2: replicate 2; for AvZ (average z score of seeding, SDs from the mean level of seeding): 10 μM phenol in cell cultures, AD brain homogenate preincubated 16 hours, two biological replicates, positive = catalyzes seeding, negative = inhibits
[1] = average Z score of the two replicates, MCE Phenols Library screen
[2] = average puncta of the two replicates
[3] = average Z score of the two replicates, tau seeding
[4] = average Z score of two replicates, Phenols Library screen
[5] = average Z score of the two replicates, tau biosensor seeding, MCE Phenols Library screen

Chain of tau (P10636 623-695 limits assumed): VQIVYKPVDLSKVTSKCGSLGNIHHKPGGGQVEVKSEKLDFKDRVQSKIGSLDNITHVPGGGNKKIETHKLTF

| SMILES | Z repl 1 | Z Repl 2 | av Z [1] | av puncta [2] | raw data 1 (raw puncta) | raw data 2 (raw puncta) | av Z [3] | av puncta (average of raw data 1 and 2) | raw data 1 (puncta) | raw data 2 (puncta) | AvZ (average z score of seeding, SDs from the mean level of seeding) | av Z [4] | av Z [5] |
| --- | --- | --- | --- | --- | --- | --- | --- | --- | --- | --- | --- | --- | --- |
| O=C1c2c(O)cccc2C([C@@H]2O[C@H](CO)[C@@H](O)[C@H](O)[C@H]2O)c2cc(CO)cc(O)c21 (stereo partly drawn) [Aloin(mixture of A&B)] | -0.336 | -0.332 | -0.334 | 15768.9 | 22314.5 | 9223.26 |  |  |  |  |  |  |  |
| O=C1c2c(O)cccc2C([C@@H]2O[C@H](CO)[C@@H](O)[C@H](O)[C@H]2O)c2cc(CO)cc(O)c21 (stereo partly drawn) [Aloin] | 0.178 | 0.236 |  |  |  |  | 0.207 | 21886.9 | 28489.7 | 15284.2 |  |  |  |
| O=c1cc(-c2ccc(O)c(-c3c(O)cc(O)c4c(=O)cc(-c5ccc(O)cc5)oc34)c2)oc2cc(O)cc(O)c12 [Amentoflavone] | -0.87 | -0.309 | -0.589 | 12689.4 |  |  |  |  | 15910.5 | 9468.24 |  |  |  |
| CCCCCCCCCCCCCCCc1cccc(O)c1C(=O)O [Anacardic Acid] | 0.086 | -0.324 |  |  |  |  |  | 18346.5 | 27383.8 | 9309.16 | -0.119 |  |  |
| O=c1cc(-c2ccc(O)cc2)oc2cc(O[C@@H]3O[C@H](CO)[C@@H](O)[C@H](O)[C@H]3O)cc(O)c12 [Apigenin 7-glucoside] | 0.518 | -0.371 |  |  |  |  |  | 20688.8 | 32570.5 | 8807.12 |  | 0.074 |  |
| O=c1cc(-c2ccc(O)cc2)oc2cc(O[C@@H]3O[C@H](CO)[C@@H](O)[C@H](O)[C@H]3O[C@@H]3OC[C@](O)(CO)[C@H]3O)cc(O)c12 [Apiin] | 1.204 | 0.234 |  |  |  |  | 0.719 | 28032.2 | 40800.8 | 15263.6 |  |  |  |
| COc1cc(C(C)=O)ccc1O [Apocynin] | -1.155 | -0.185 |  | 11639.1 |  |  |  |  | 12482.9 | 10795.4 | -0.67 |  |  |
| OC[C@H]1O[C@@H](Oc2ccc(O)cc2)[C@H](O)[C@@H](O)[C@@H]1O [Arbutin] | -0.665 | 0.333 |  |  |  |  |  | 17341.3 | 18360 | 16322.6 |  | -0.166 |  |
| CC(=O)c1cc2c(CO)cc(O)cc2oc1=O [Armillarisin A] | -0.702 | 0.126 | -0.288 | 16013.9 | 17917.5 | 14110.3 |  |  |  |  |  |  |  |
| O=c1c(O[C@@H]2O[C@H](CO)[C@@H](O)[C@H](O)[C@H]2O)c(-c2ccc(O)cc2)oc2cc(O)cc(O)c12 [Astragalin] | -0.525 | -0.638 | -0.581 | 12999 |  |  |  |  | 20041.3 | 5956.82 |  |  |  |
| COC(=O)c1c(C)cc(OC(=O)c2c(C)cc(O)c(C=O)c2O)c(C)c1O [Atranorin] | -0.357 | -0.801 | -0.579 | 13136.9 |  |  |  |  | 22066.2 | 4207.53 |  |  |  |
| COc1c(O[C@@H]2O[C@H](CO)[C@@H](O)[C@H](O)[C@H]2O)cc2c(c1O)C(=O)c1c(cc(C)c(O)c1OC)C2=O [Aurantio-obtusin ?-D-glucoside] | -0.961 | -0.271 | -0.616 | 12342.8 |  |  |  |  | 14810.1 | 9875.55 |  |  |  |
| O=c1c(O[C@@H]2O[C@@H](CO)[C@H](O)[C@H]2O)c(-c2ccc(O)c(O)c2)oc2cc(O)cc(O)c12 [Avicularin] | 1.115 | 1.158 |  |  |  |  |  | 32432 | 39734.3 | 25129.7 |  |  | 1.136 |
| COc1cc(O)c2c(=O)c(OC)c(-c3ccc(OC)c(O)c3)oc2c1 [Ayanin] | -1.206 | -0.903 | -1.054 |  |  |  |  | 7498.38 | 11871.6 | 3125.17 |  |  |  |
| O=c1c(O[C@@H]2O[C@H](CO)[C@@H](O)[C@H](O)[C@H]2O[C@@H]2O[C@H](CO)[C@@H](O)[C@H](O)[C@H]2O)c(-c2ccc(O)c(O)c2)oc2cc(O)cc(O)c12 [Baimaside] | 1.152 | 0.927 |  |  |  |  |  | 31424.7 | 40179 | 22670.4 |  |  | 1.04 |
| COc1ccc(-c2oc3c(CC=C(C)C)c(O)cc(O)c3c(=O)c2O[C@@H]2O[C@@H](C)[C@H](O)[C@@H](O)[C@H]2O)cc1 [Baohuoside I] | 0.959 | 1.521 |  |  |  |  |  | 33434.4 | 37856.1 | 29012.8 |  |  | 1.24 |
| CC(C)=CCc1cc(C(=O)/C=C/c2ccc(O)cc2)c(O)cc1O [Bavachalcone] | -0.876 | -0.134 | -0.505 | 13584.6 |  |  |  |  | 15835.9 | 11333.2 |  |  |  |
| CC(C)=CCc1cc2c(cc1O)O[C@H](c1ccc(O)cc1)CC2=O [Bavachin] | -0.343 | -0.767 | -0.555 | 13401.9 |  |  |  |  | 22229.8 | 4573.9 |  |  |  |
| COc1ccc2cc3[n+](cc2c1O)CCc1cc2c(cc1-3)OCO2.[Cl-] [Berberrubine (chloride)] | 0.031 | -0.189 |  |  |  |  |  | 18734.2 | 26719.5 | 10748.8 |  | -0.079 |  |
| COc1c(O)cc2c(c1O)[C@@H]1O[C@H](CO)[C@@H](O)[C@H](O)[C@H]1OC2=O [Bergenin] | 0.275 | -0.537 |  |  |  |  |  | 18336.6 | 29646.8 | 7026.42 |  | -0.131 |  |
| CC(=O)OC(C)(C)CC(=O)O[C@H](CC=C(C)C)C1=CC(=O)c2c(O)ccc(O)c2C1=O [Beta-Acetoxyisovalerylshikonin] | -0.24 | 0.548 |  |  |  |  | 0.154 | 21041.3 | 23464.1 | 18618.6 |  |  |  |
| O=C(/C=C/c1ccc(O)cc1)CC(=O)/C=C/c1ccc(O)cc1 [Bisdemethoxycucurmin] | 0.602 | -0.122 |  |  |  |  | 0.24 | 22516.9 | 33572.4 | 11461.3 |  |  |  |
| CC(C)(c1ccc(O)cc1)c1ccc(O)cc1 [Bisphenol A] | 0.124 | 0.085 |  |  |  |  |  | 20753.8 | 27836.8 | 13670.7 |  | 0.104 |  |
| COc1cc(O)c2c(c1)O[C@H](c1cc(O)cc(O)c1)CC2=O [Blumeatin] | -0.753 | -0.754 | -0.753 | 11011.8 |  |  |  |  | 17305.9 | 4717.73 |  |  |  |
| Oc1ccc2c(c1)OC[C@]1(O)Cc3cc(O)c(O)cc3[C@H]21 [Brazilin] | -0.564 | -0.743 | -0.654 | 12203.7 |  |  |  |  | 19572.7 | 4834.73 |  |  |  |
